Experimental data: patent publication US20070259837A1, “Use of Non-Glucocorticoid Steroids for the Treatment of Muscular Dystrophy” (SANTHERA PHARMACEUTICALS (SCHWEIZ) AG, priority 2004, published 2007)
Read-outs that look alike come from different tables or passages of the source.

Tested on: utrophin protein in human muscle cells derived from DMD patients
Assay: Cell-based ELISA for normalized utrophin protein level in primary human myotube cultures
Conditions: for % UTR vs. PDN (normalized utrophin protein as % of PDN-treated sister cultures): same experiment; for activity at 0.5 µM: Myotube, read-out: % UTR vs. DMSO (normalized utrophin protein over DMSO-solvent treated control)
Method: The method used to detect and determine utrophin-inducing activity of non-glucocorticoid steroids has been described previously (Courdier-Fruh, I., Barman, L., Briguet, A. & Meier, T.; 2002, Neuromuscul. Disord.; 12 Suppl:S95). Briefly, primary human muscle cell cultures were prepared according to standard protocols (Askanas V, Kwan H, Alvarez R B, Engel W K, Kobayashi T, Martinuzzi A, Hawkins E F., 1987, J Neurocytol., 16:523-537). Test compounds and the glucocorticoid 6α-methylprednisolone-21 sodium succinate (Pharmacia & Upjohn; Solu-Medrol®, PDN) as reference compound were applied at 500 nM final concentration as soon as myoblasts started to differentiate into myotubes. Incubation with the test compound was ended as soon as well differentiated myotubes have formed, typically resulting in an incubation time with a test compound for 3-7 days.
Normalized concentrations of utrophin protein in human muscle cells cultured in microtiter plates were determined by a cell-based enzyme-linked immunosorbent assay (ELISA) procedure that allows a successive readout for the cell density and utrophin protein level. For calibration, the cell density and differentiation was determined by absorbance measurements of the total dehydrogenase enzyme activity in each well using the colorimetric CellTiter 96®AQ One Solution Reagent Proliferation Assay (Promega) according to the manufacturer's recommendation. Subsequently, cells were fixed, washed, permeabilized with 0.5% (v/v) Triton X-100 and unspecific antibody binding-sites were blocked by standard procedures. Utrophin protein levels were determined immunologically with utrophin-specific primary antibodies (mouse monoclonal antibody to the amino terminal portion of utrophin, NCL-DRP2, Novocastra Laboratories) and with appropriate peroxidase-coupled secondary antibodies using QuantaBlu™ Fluorogenic Peroxidase Substrate Kit (Pierce) for detection. Fluorescence measurements were carried out with a multilabel counter (Wallac) at λex=325 nm and at λem=420 nm. The primary readout of this signal is presented in arbitrary units. For calibration, the arbitrary units representing the relative utrophin protein content of each well were divided by the corresponding cell-titer absorbance value to correct for cell density. For comparison between experiments, the cell-titer corrected readout for utrophin protein content in each well was expressed in percent of solvent treated control cultures (set to 100%). PDN was included in all experiments as reference glucocorticoid, N=3-5 for each compound tested.
Non-glucocorticoid test compounds, applied in a concentration of 500 nM, were regarded as “positive” in case the increase in the level of utrophin protein was at least 20% (mean value) over control cultures treated with the appropriate dilution of DMSO solvent as control and containing no test compound.
A range of different pharmaceutical compounds were tested for their ability to increase levels of utrophin protein in primary human myotube cultures. The cell-based ELISA protocol used to detect the level of utrophin protein is provided above and described in Courdier-Fruh, I., Barman, L., Briguet, A. & Meier, T, 2002, Neuromuscul. Disord.: 12, Suppl:S95. Briefly, fixed and permeabilized human muscle cells derived from DMD patients and cultured in 96-well cell culture plates were incubated with antibodies specific for utrophin at a dilution of 1:1'000 in blocking solution (phosphate buffered saline (PBS) supplemented with 2% fetal calf serum and 1% bovine serum albumin) for 10-15 hours at 4° C. Following several washing steps with 0.1% Triton X-100 in PBS, peroxidase-coupled secondary antibodies diluted 1:3'000 in blocking solution were applied in each well for 1-2 hours at room temperature. Signal detection, data acquisition and normalization was performed as described above and in Courdier-Fruh, I., Barman, L., Briguet, A. & Meier, T, 2002, Neuromuscul. Disord.: 12, Suppl:S95. […]

[1] = 500 nM compound, human muscle cultures, mean value, N=3-6

Compound	% UTR vs. PDN (normalized utrophin protein as % of PDN-treated sister cultures) [1] [%]	activity at 0.5 µM (Homo sapiens) [%]	% UTR vs. DMSO (normalized utrophin protein over DMSO-solvent treated control) [1] [%]	activity at 0.5 µM [1] [%]
C[C@]12C[C@H](O)C3C(CC[C@@H]4C[C@H](O)CC[C@]34C)C1CCC2C(=O)CO (some centres unmarked) [Example 69]	95	123		
Norethisterone [Example 40]	106		134	
CC(C)=CCCC(C)[C@H]1CC[C@@]2(C)C3=C(CC[C@]12C)[C@@]1(C)CC[C@H](O)C(C)(C)C1CC3 (some centres unmarked) [Example 37, Lanosterol]	102	123		
CC(=O)O[C@H]1CC[C@]2(C)C3C=C[C@]4(C)C5[C@H](C[C@H]4[C@@H]3CC[C@H]2C1)O[C@]1(CCC(C)CO1)[C@H]5C (some centres unmarked) [Example 25]	102	129		
C#C[C@]1(OC(C)=O)CCC2C3CCC4=C[C@@H](OC(C)=O)CC[C@@H]4C3CC[C@@]21C (some centres unmarked) [Example 45]	99			130
CC(C)CCCC(C)[C@H]1CCC2C3C(=O)C=C4C[C@@H](O)CC[C@]4(C)C3CC[C@@]21C (some centres unmarked) [Example 31]	109	137		
CCC(=O)Oc1ccc2c(c1)CCC1C2CC[C@@]2(C)C1C[C@@H](OC(=O)CC)[C@@H]2OC(=O)CC (some centres unmarked) [Example 75]	102	131		
C[C@]12CCC(=O)C=C1CCC1C2CC[C@]2(C)[C@@H](C(=O)O)CC[C@]12O (some centres unmarked) [Example 18]	101	120		
C[C@]12CCC3c4ccc(O)cc4C=CC3C1CCC2=O (some centres unmarked) [Example 80]	96			125
C[C@]12CCC(=O)C[C@H]1CCC1C2C(=O)C[C@]2(C)C(C3=CC(=O)OC3)CC[C@]12O (some centres unmarked) [Example 84]	98	123		
CC1CC[C@@]2(OC1)O[C@H]1C[C@H]3[C@@H]4CC[C@H]5CC(=O)CC[C@]5(C)C4CC[C@]3(C)C1[C@@H]2C (some centres unmarked) [Example 28]	93	120		
C[C@@]12C=CCC1C1CC[C@H]3C[C@H](O)CC[C@]3(C)C1CC2 (some centres unmarked) [Example 47]	98	127		
C[C@]12CCC3C(CC[C@H]4C[C@@H](OC(=O)c5ccccc5)CC[C@]34C)C1CC(=O)C2 (some centres unmarked) [Example 46]	112	131		
CC(C)CCCC(C)[C@H]1CCC2C3C[C@@H](O)[C@@]4(O)C[C@@H](O)CC[C@]4(C)C3CC[C@@]21C (some centres unmarked) [Example 35]	94	122		
C[C@]12CCC3c4ccc(OC(=O)c5ccccc5)cc4CCC3C1CC[C@@H]2O (some centres unmarked) [Example 73]	105			132
C[C@]12CC[C@H](Cl)CC1=CCC1C2CC[C@]2(C)C(=O)CCC12 (some centres unmarked) [Example 50]	98	123		
CC(=O)O[C@H]1CC[C@]2(C)C3=CC[C@]4(C)C(C(C)=O)=CCC4C3CC[C@H]2C1 (some centres unmarked) [Example 55]	107	125		

Compound	% UTR vs. PDN (normalized utrophin protein as % of PDN-treated sister cultures) [1] [%]	activity at 0.5 µM (Homo sapiens) [%]	% UTR vs. DMSO (normalized utrophin protein over DMSO-solvent treated control) [1] [%]	activity at 0.5 µM [1] [%]
C[C@H](C(=O)O)C1CCC2C3CC=C4C[C@H](O)CC[C@]4(C)C3CC[C@@]21C (some centres unmarked) [Example 16]	104	136		
CC(=O)[C@@]1(O)CCC2C3CCC4=CC(=O)CC[C@]4(C)C3CC[C@@]21C (some centres unmarked) [Example 66]	97			127
CC(=O)Oc1ccc2c(c1)CCC1C2CC[C@]2(C)C(=O)CCC12 (some centres unmarked) [Example 76, Estrone acetate]	102	129		
CC(=O)C1CCC2C3CC[C@H]4C[C@H](O)CC[C@]4(C)C3C[C@H](O)[C@]12C (some centres unmarked) [Example 65]	97	121		
CC(CCC(=O)O)C1CCC2C3C(CC[C@]12C)[C@@]1(C)CC[C@@H](O)C[C@H]1C[C@@H]3O (some centres unmarked) [Example 10]	96	121		
CC(C)CCCC(C)[C@H]1CCC2C3=CC[C@H]4C[C@@H](O)CC[C@]4(C)C3CC[C@@]21C (some centres unmarked) [Example 33]	99	125		
CC1CC[C@@]2(OC1)O[C@H]1C[C@H]3[C@@H]4CC[C@H]5C[C@@H](OC(=O)c6ccccc6)CC[C@]5(C)C4=CC(=O)[C@]3(C)C1[C@@H]2C (some centres unmarked) [Example 20]	113	131		
C[C@]12C[C@@H](O)C3C(CC[C@@H]4C[C@@H](O)CC[C@]34C)C1=CCC2C1=CC(=O)OC1 (some centres unmarked) [Example 85]	99	120		
C[C@]12CCC3c4ccc(OC(=O)c5ccccc5)cc4CCC3C1C[C@@H](O)[C@@H]2O (some centres unmarked) [Example 78]	99	124		
COc1ccc2c(c1)CCC1C2CC[C@@]2(C)C1CC[C@]2(C)O (some centres unmarked) [Example 79]	98	126		
CC(=O)[C@@]12O[C@@H]1CC1C3CC(C)=C4C[C@@H](O)CC[C@]4(C)C3CC[C@@]12C (some centres unmarked) [Example 61]	100	130		
C[C@]12C=CC(=O)C=C1CCC1C2=CC[C@]2(C)C(C(=O)CN3CCN(c4cc(N5CCCC5)nc(N5CCCC5)n4)CC3)CCC12.O=C(O)/C=C\C(=O)O (some centres unmarked) [Example 51]	113	143		
CC(=O)O[C@@H]1C[C@]2(C)C(C3=CC(=O)OC3)CC[C@]2(O)C2CC[C@@H]3C[C@@H](O)CC[C@]3(C)C21 (some centres unmarked) [Example 83]	99	121		
CC(=O)O[C@@]1(C(C)=O)CCC2C3C[C@H](C)C4=CC(=O)CC[C@]4(C)C3CC[C@@]21C (some centres unmarked) [Example 54]	106			135
CC(CCC(=O)O)C1CCC2C3CC[C@@H]4C[C@H](O)CC[C@]4(C)C3CC[C@]12C (some centres unmarked) [Example 9]	98			119
CC(C)CCCC(C)[C@H]1CCC2C3CC[C@H]4C[C@H](O)CC[C@]4(C)C3CC[C@@]21C (some centres unmarked) [Example 34]	97	125		
CC(=O)O[C@@H]1CC[C@]2(C)C3CC[C@]4(C)[C@@H](C(=O)O)[C@@H](OC(C)=O)C[C@]4(O)C3CC[C@@H]2C1 (some centres unmarked) [Example 19]	98	123		
